Here are results for seven compounds from ChEMBL document CHEMBL1125926, “Anesthetic steroid mobility in model membrane preparations as examined by high-resolution 1H and 2H NMR spectroscopy” (1991).

Calls of active or inactive are those of the source. The rule behind the calls is not given here.

The first assay can be described thus: Compound was evaluated for anesthetic activity (lowest dose producing loss of righting reflex); IA=Inactive. The assay is classed as functional.
Regarding `CC(=O)C1=CCC2C3CC[C@H]4C[C@H](O)CCC4(C)C3C(=O)CC12C` (some centres not stated), the result was inactive.

The next assay in a line: Compound was evaluated for anesthetic activity (lowest dose producing loss of righting reflex). The assay is classed as functional.
For `CC(=O)C1CC[C@H]2[C@@H]3CC[C@@H]4C[C@H](O)CCC4(C)[C@H]3CCC12C` (some centres not stated), the Activity amounted to 3.1 mg/kg.

`CC(=O)C1CC[C@H]2[C@@H]3CC[C@@H]4C[C@@H](O)CCC4(C)[C@H]3CCC12C` (some centres not stated): the Activity stood at 25 mg/kg.

For `CC(=O)[C@H]1CC[C@H]2[C@@H]3CC[C@H]4C[C@H](O)CC[C@]4(C)[C@H]3CC[C@]12C` [BREXANOLONE], the Activity amounted to 3.1 mg/kg.

The compound `CC(=O)[C@H]1CC[C@H]2[C@@H]3CC[C@H]4C[C@H](O)CC[C@]4(C)[C@H]3C(=O)C[C@]12C` [ALFAXALONE] yielded an Activity of 3.1 mg/kg.

For the compound `CC(=O)[C@H]1CC[C@H]2[C@@H]3CC[C@@H]4C[C@H](O)CC[C@]4(C)[C@H]3C(=O)C[C@]12C` [RENANOLONE], the Activity turned out to be 6.3 mg/kg.

Compound `CC(=O)C1CC[C@H]2[C@@H]3CC[C@H]4C[C@@H](O)CCC4(C)[C@H]3CCC12C` (some centres not stated) displayed an Activity of 100 mg/kg.
